Results on 19 compounds are retold here after US9670175B2, “Protected succinates for enhancing mitochondrial ATP-production” (NEUROVIVE PHARMACEUTICALS AB, priority 2012, dated 2017).

The subject of assay [1] is rotenone-inhibited intact human platelets. As to the kind of experiment: mitochondrial complex II screening assay (high-resolution respirometry). Conditions: for Mitochondrial Respiration: Complex II-dependent respiration, rotenone-inhibited intact human platelets. It is filed as cell-based. The source says: FIG. 1 is a schematic figure of mitochondrial complex II screening assay. […] In the assay, mitochondrial function in intact cells is repressed with the respiratory complex I inhibitor rotenone. Drug candidates are compared with endogenous substrates (succinate) before and after permeabilization of the plasma membrane to evaluate bioenergetic enhancement or inhibition.
Human platelets were isolated from venous blood collected in K2EDTA vials through two centrifugation steps in room temperature. After 10 min at 300 g, platelet rich plasma was collected and transferred to new vials. 5 min at 4600 g yielded a platelet pellet that was resuspended in an appropriate amount of plasma. The cell concentration was determined with a Swelab Alfa Hematocytometer (Boule Medical AB, Stockholm, Sweden).
Measurement of mitochondrial respiration was performed in a high-resolution oxygraph (Oxygraph—2 k, Oroboros Instruments, Innsbruck, Austria) at a constant temperature of 37° C. Platelets were suspended in the 2 mL glass chamber at a concentration of 200-400*10^6 cells/mL.
(1) Initial screen, complex II-effect, was performed with isolated intact platelets in a buffer containing 110 mM sucrose, HEPES 20 mM, taurine 20 mM, K-lactobionate 60 mM, MgCl2 3 mM, KH2PO4 10 mM, EGTA 0.5 mM, BSA 1 g/l, pH 7.1. After baseline respiration with endogenous substrates was established, complex I was inhibited with Rotenone […]. Drug candidates dissolved in DMSO were titrated in steps to 100 μM, 500 μM and 5 mM final concentration. Subsequently, cell membranes were permeabilised with digitonin (1 mg/1*10^6 pit). After stabilized respiration, Succinate 10 mM was added and after the respiration stabilized the experiment was terminated by addition of the complex III inhibitor Antimycin at final concentration 1 μg/mL and the residual respiration measured. […] In the assay, mitochondrial function in intact cells is repressed with the respiratory complex I inhibitor rotenone. Drug candidates are compared with endogenous substrates before and after permeabilization of the plasma membrane to evaluate bioenergetic enhancement or inhibition.
(1) The ideal compound stimulates respiration in rotenone-inhibited intact cells at low concentration in the CII-screening protocol without inhibitory effect on succinate stimulated respiration after permeabilization. After inhibition of respiration with mitochondrial toxins, respiration should be halted. Please refer to FIG. 1. and the listing below.

Another assay deals with intact human platelets. The assay can be described thus: mitochondrial convergent respiration screening assay (FCCP-uncoupled, high-resolution respirometry). The format is cell-based. The conditions noted are these: control disodium succinate, FIGS. 3A-3C. The source says: FIG. 2 is a schematic figure of mitochondrial convergent respiration screening assay. It describes the protocol for evaluating the potency of novel cell-permeable mitochondrial substrates. In the assay, mitochondrial activity is stimulated by uncoupling the mitochondria with the protonophore FCCP. Drug candidates are titrated to obtain the level of maximum convergent (complex I- and complex II-derived) respiration. After rotenone addition, complex II-dependent stimulation is obtained. The complex III-inhibitor antimycin is added to evaluate non mitochondrial oxygen consumption. The reference substance is succinate.
Human platelets were isolated from venous blood collected in K2EDTA vials through two centrifugation steps in room temperature. After 10 min at 300 g, platelet rich plasma was collected and transferred to new vials. 5 min at 4600 g yielded a platelet pellet that was resuspended in an appropriate amount of plasma. The cell concentration was determined with a Swelab Alfa Hematocytometer (Boule Medical AB, Stockholm, Sweden). […]
(2) In the second protocol, convergent respiration, the same respiration buffer and cell concentrations as described above was used. […] The experiment was terminated by addition of 2 μM Rotenone and 1 μg/mL Antimycin and residual respiration measured. […]

[2] abbreviates: titrated to 100 μM, 500 μM and 5 mM.
[3] abbreviates: previously known related compounds.

Turning to `COC(=O)CCC(=O)OC(C)OC(C)=O` (stereo not drawn) [Example 6, Succinic Acid 1-Acetoxy-Ethyl Ester Methyl Ester], in assay [1] (setting [2]), the “Mitochondrial Respiration” value was “+”.

As for `CCC(OC(C)=O)OC(=O)CCC(=O)OC(CC)OC(C)=O` (stereo not drawn) [Example 7, Succinic Acid bis-(1-acetoxy-propyl)ester], the “Mitochondrial Respiration” value in assay [1] (setting [2]) is “++”.

Turning to `CCOC(=O)OC(C)OC(=O)CCC(=O)OCC(=O)N(CC)CC` (stereo not drawn) [Example 11, Succinic Acid Diethylcarbamoylmethyl Ester 1-Ethoxycarbonyloxy-Ethyl Ester], the “Mitochondrial Respiration” value in assay [1] (setting [2]) is on record as “(+)”.

For the compound `COC(=O)CCC(=O)OCOC(=O)C(C)(C)C` [Example 2, Succinic Acid 2,2-dimethyl-propionyloxymethyl Ester Methyl Ester], the “Mitochondrial Respiration” value in assay [1] (setting [2]) was “++”.

For `CC1(C)OC(=O)C(OC(=O)CCC(=O)OC2OC(C)(C)OC2=O)O1` (stereo not drawn) [Example 14, Succinic Acid bis-(2,2-dimethyl-5-oxo-[1,3]dioxolan-4-yl)ester], the “Mitochondrial Respiration” value in assay [1] (setting [2]) was “+++ (stimulation gradually increases and reaches maximum at ≦0.5 mM)”.

`CC(=O)OC(C)OC(=O)CCC(=O)OCOC(=O)CCC(=O)OC(C)OC(C)=O` (stereo not drawn) [Example 17, Succinic Acid 3-(1-acetoxy-ethoxycarbonyl)-propionyloxymethyl Ester 1-acetoxy-ethyl Ester]: the “Mitochondrial Respiration” value in assay [1] (setting [2]) was “+++ (stimulation gradually increases and reaches maximum at ≦0.5 mM)”.

Turning to `CCC(=O)OC(C)OC(=O)CCC(=O)OC(C)OC(=O)CC` (stereo not drawn) [Example 8, Succinic Acid bis-(1-propionyloxy-ethyl)ester], in assay [1] (setting [2]), the “Mitochondrial Respiration” value is “++”.

Turning to `CCOC(=O)OC(C)OC(=O)CCC(=O)OC(C)OC(C)=O` (stereo not drawn) [Example 16, Succinic Acid 1-acetoxy-ethyl Ester 1-ethoxycarbonyloxy-ethyl Ester], the “Mitochondrial Respiration” value in assay [1] (setting [2]) is reported as “++”.

Turning to `COC(=O)CCC(=O)OC` [Dimethyl succinate, reference compound], in assay [1], the “activity in the assays exemplified” value is “inactive”. For the same compound, the “Mitochondrial Respiration” value in assay [1] (setting [3]) is “−”.

As to `CC(=O)OC(C)OC(=O)CCC(=O)OC(C)OC(C)=O` (stereo not drawn) [Example 5, Succinic Acid bis-(1-acetoxy-ethyl)ester], the “Mitochondrial Respiration” value in assay [1] (setting [2]) was “+++ (stimulation gradually increases and reaches maximum at ≦0.5 mM)”. Also, the “respiration (oxygen flux per unit) with stepwise titration compared to control” value in the assay with intact human platelets is recorded as “increase in respiration”.

`CCN(CC)C(=O)COC(=O)CCC(=O)OCOC(C)=O` [Example 10, Succinic Acid Acetoxymethyl Ester Diethylcarbamoylmethyl Ester]: the “Mitochondrial Respiration” value in assay [1] (setting [2]) is reported as “++”.

Consider `CCOC(=O)CCC(=O)OCC` [Diethyl succinate, reference compound], for which, in assay [1], the “activity in the assays exemplified” value was “inactive”. Further, the “Mitochondrial Respiration” value in assay [1] (setting [3]) was “−”.

As to `O=C1CCC(=O)OCOCOCO1` [Example 9, 1,3,5,7-Tetraoxa-cycloundecane-8,11-dione], in assay [1] (setting [2]), the “Mitochondrial Respiration” value is “+”.

For `COC(=O)CCC(=O)O` [Monomethyl succinate, reference compound], in assay [1], the “activity in the assays exemplified” value is “inactive”. Besides, the “Mitochondrial Respiration” value in assay [1] (setting [3]) is given as “−”.

As to `COC(=O)CCC(=O)OCOC(C)=O` [Example 4, Succinic Acid Acetoxymethyl Ester Methyl Ester], the “Mitochondrial Respiration” value in assay [1] (setting [2]) was “++”.

For `CC(=O)OCOC(=O)CCC(=O)OCOC(=O)CCC(=O)OCOC(C)=O` [Example 18, Succinic Acid 3-acetoxymethoxycarbonyl-propionyloxymethyl Ester Acetoxymethyl Ester], in assay [1] (setting [2]), the “Mitochondrial Respiration” value is “+++ (stimulation gradually increases and reaches maximum at ≦0.5 mM)”.

For the compound `CCN(CC)C(=O)COC(=O)CCC(=O)OC(C)OC(C)=O` (stereo not drawn) [Example 12, Succinic Acid 1-Acetoxy-Ethyl Ester Diethylcarbamoylmethyl Ester], the “Mitochondrial Respiration” value in assay [1] (setting [2]) is recorded as “+”.

Regarding `COC(=O)C(OC)OC(=O)CCC(=O)OC(OC)C(=O)OC` (stereo not drawn) [Example 15, Succinic Acid bis-(methoxy-methoxycarbonyl-methyl)ester], the “Mitochondrial Respiration” value in assay [1] (setting [2]) is “(+)”.

With `CC(=O)OCOC(=O)CCC(=O)OC(C)OC(C)=O` (stereo not drawn) [Example 13, Succinic Acid 1-Acetoxy-Ethyl Ester Acetoxymethyl Ester], in assay [1] (setting [2]), the “Mitochondrial Respiration” value was “+++ (stimulation gradually increases and reaches maximum at ≦0.5 mM)”. Moreover, the “respiration (oxygen flux per unit) with stepwise titration compared to control” value in the assay on intact human platelets is “increase in respiration”.
